The values below come from patent US9382222B2, “Benzyl sulfonamide derivatives as RORc modulators” (Genentech, Inc., priority 2012, dated 2016).

The target of the assay is T1, RORc ligand binding domain (Homo sapiens, UniProt P51449).
T1 construct: host or cells: E. coli
T1 sequence (P51449 269-508 limits assumed): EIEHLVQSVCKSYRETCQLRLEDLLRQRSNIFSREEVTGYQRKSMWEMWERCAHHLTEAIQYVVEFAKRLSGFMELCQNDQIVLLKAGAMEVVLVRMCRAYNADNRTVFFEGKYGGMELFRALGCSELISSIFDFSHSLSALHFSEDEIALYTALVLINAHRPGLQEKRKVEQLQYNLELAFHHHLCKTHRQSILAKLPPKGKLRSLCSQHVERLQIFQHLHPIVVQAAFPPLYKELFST
Put plainly: In Vitro RORc Ligand Binding Assay. Particulars: displacement of 25-[3H]hydroxycholesterol (6 nM), 0.6 ug/mL RORc receptor, 3 h at 25° C. Here is the method:
In Vitro RORc Ligand Binding Assay This assay was used to determine a compound's potency in inhibiting activity of RORc by determining, Kiapp, IC50, or percent inhibition values. […] On day of the assay, 100 uL of 0.05% CHAPS (in deionized H2O) was added to all wells of the GFB Unifilter plate and allowed soak for 1 h. A wash buffer of 50 mM HEPES (pH 7.4), 150 mM NaCl, and 5 mM MgCl2 was prepared to wash the filter plate. To prepare an assay buffer, BSA was added to the wash buffer to reach 0.01% and DTT was added to reach 1 mM. […] The 20× compound stocks were diluted in DMSO with Assay Buffer 4-fold to reach 5× the final test concentration in 25% DMSO (10 uL compound+30 uL Assay Buffer). Solutions were mixed by aspiration several times with a pipette set on 50 uL volume. For the assay, 10 uL of 5× compound stock solutions in 25% DMSO were added to the assay plate in duplicate. For two point screening, 10 mM stock compound solutions were diluted in DMSO to obtain 200 uM (20× the high test concentration) and then diluted 10-fold further to reach 20 uM (20× the low test concentration). The 20× stocks were diluted 4-fold with Assay Buffer (10 uL compound+30 uL Assay Buffer) to reach 5× the test concentrations (50 uM and 5 uM) and 10 uL were added to two assay plates for the duplicate wells. […] Add 20 uL to all wells to reach 6 nM final concentration in the assay. […] Stock receptor solution was diluted in assay buffer to obtain 1.5 ug/mL in Assay Buffer. 20 uL was added to all wells. For No Receptor samples, 20 uL Assay Buffer was substituted for receptor solution. […] Following addition to the wells, the plates were incubated 3 h at 25° C. Using a Packard Filtermate Harvester, the filter plate were washed 4 times following transfer of the incubated samples. Plates were dry-filtered completely (2 h at 50° C. or overnight at room temperature). 50 uL Microscint 0 was added to all wells and read on Topcount protocol Inverted. […] For NSB wells, 1 uM 25-hydroxycholesterol was also present.
`CC(C)CN(Cc1ccccc1C(F)(F)F)S(=O)(=O)c1ccc(N2CCN(S(=O)(=O)N(C)C)CC2)cc1` [Compound 73, 4-{4-[Isobutyl-(2-trifluoromethyl-benzyl)-sulfamoyl]-phenyl}-piperazine-1-sulfonic acid dimethylamide]: the IC50 came out at 23 nM.
For `CC(=O)N1CCN(c2ccc(S(=O)(=O)N(Cc3ccc(Cl)cc3)CC(C)C)cc2)CC1` [Compound 67, 4-(4-Acetyl-piperazin-1-yl)-N-(4-chloro-benzyl)-N-isobutyl-benzenesulfonamide] the value was 87 nM.
For `CC(C)CN(c1ccccc1C(F)(F)F)S(=O)(=O)c1ccc(NC(=O)C2CCN(S(C)(=O)=O)CC2)cc1` [Compound 11, 1-Methanesulfonyl-piperidine-4-carboxylic acid {4-[isobutyl-(2-trifluoromethyl-phenyl)-sulfamoyl]-phenyl}-amide] the value was 13 nM.
For `CC(C)CN([C@H](C)c1ccccc1)S(=O)(=O)c1ccc(N2CCN(S(C)(=O)=O)CC2)cc1` [Compound 62, N-Isobutyl-4-(4-methanesulfonyl-piperazin-1-yl)-N-((R)-1-phenyl-ethyl)-benzenesulfonamide] the value was 483 nM; for `CC(C)CN(c1cc(F)ccc1F)S(=O)(=O)c1ccc(OC2CCN(S(C)(=O)=O)CC2)cc1` [Compound 51, N-(2,5-Difluoro-phenyl)-N-isobutyl-4-(1-methanesulfonyl-piperidin-4-yloxy)-benzenesulfonamide], 8 nM.
In the case of `CC(=O)N1CCN(c2ccc(S(=O)(=O)N(CC(F)(F)F)c3cccc(Cl)c3)cc2)CC1` [Compound 37, 4-(4-Acetyl-piperazin-1-yl)-N-(3-chloro-phenyl)-N-(2,2,2-trifluoro-ethyl)-benzenesulfonamide], the IC50 was determined as 305 nM.
For `CC(C)CN(Cc1ccc(OC(F)(F)F)cc1)S(=O)(=O)c1ccc(N2CCN(S(C)(=O)=O)CC2)cc1` [Compound 64, N-Isobutyl-4-(4-methanesulfonyl-piperazin-1-yl)-N-(4-trifluoromethoxy-benzyl)-benzenesulfonamide] the value was 102 nM; for `CN(C)S(=O)(=O)N1CCN(c2ccc(S(=O)(=O)N(Cc3ccccc3C(F)(F)F)C(C)(C)C)cc2)CC1` [Compound 82, 4-{4-[tert-Butyl-(2-trifluoromethyl-benzyl)-sulfamoyl]-phenyl}-piperazine-1-sulfonic acid dimethylamide], 51 nM; for `CC(C)CN(c1c(F)cccc1F)S(=O)(=O)c1ccc(OC2CCN(S(C)(=O)=O)CC2)cc1` [Compound 52, N-(2,6-Difluoro-phenyl)-N-isobutyl-4-(1-methanesulfonyl-piperidin-4-yloxy)-benzenesulfonamide], 11 nM.
`CC(C)CN(Cc1ccccc1C(F)(F)F)S(=O)(=O)c1ccc(N2CCN(S(C)(=O)=O)CC2)c(F)c1` [Compound 75, 3-Fluoro-N-isobutyl-4-(4-methanesulfonyl-piperazin-1-yl)-N-(2-trifluoromethyl-benzyl)-benzenesulfonamide] showed an IC50 of 8 nM.
For `CC(C)CN(c1cccc(Cl)c1)S(=O)(=O)c1ccc(N2CCN(S(C)(=O)=O)CC2)cc1F` [Compound 27, N-(3-Chloro-phenyl)-2-fluoro-N-isobutyl-4-(4-methanesulfonyl-piperazin-1-yl)-benzenesulfonamide] the value was 33 nM; for `CC(C)CN(c1ccccc1Cl)S(=O)(=O)c1cccc(N2CCN(S(C)(=O)=O)CC2)c1` [Compound 25, N-(2-Chloro-phenyl)-N-isobutyl-3-(4-methanesulfonyl-piperazin-1-yl)-benzenesulfonamide], 528 nM.
For `CC(C)CN(c1cccc(Cl)c1)S(=O)(=O)c1ccc(OC2CCN(C(N)=O)CC2)cc1` [Compound 35, 4-{4-[(3-Chloro-phenyl)-isobutyl-sulfamoyl]-phenoxy}-piperidine-1-carboxylic acid amide] the value was 108 nM; for `CC(C)CN(c1cccc(Cl)c1)S(=O)(=O)c1ccc(N2CCN(S(C)(=O)=O)CC2)c(F)c1` [Compound 29, N-(3-Chloro-phenyl)-3-fluoro-N-isobutyl-4-(4-methanesulfonyl-piperazin-1-yl)-benzenesulfonamide], 36 nM; for `CC(=O)N1CCN(c2ccc(S(=O)(=O)N(CC(C)C)c3ccccc3Cl)cc2)CC1` [Compound 21, 4-(4-Acetyl-piperazin-1-yl)-N-(2-chloro-phenyl)-N-isobutyl-benzenesulfonamide], 99 nM.
Regarding `CC(=O)N1CCN(c2ccc(S(=O)(=O)N(CC(F)F)c3cccc(Cl)c3)cc2)CC1` [Compound 38, 4-(4-Acetyl-piperazin-1-yl)-N-(3-chloro-phenyl)-N-(2,2-difluoro-ethyl)-benzenesulfonamide], the half-inhibitory concentration (IC50) is 1400 nM. This IC50 lies about 14-fold higher than the previous one.
Molecule `CC(=O)N1CCN(c2ccc(S(=O)(=O)N(CC(C)C)c3ccccc3C(F)(F)F)cc2)CC1` [Compound 41, 4-(4-Acetyl-piperazin-1-yl)-N-isobutyl-N-(2-trifluoromethyl-phenyl)-benzenesulfonamide] showed an IC50 of 28 nM. Compared with the last molecule, the IC50 is about 50-fold lower.
Take `CC(C)CN(c1cccc(Cl)c1)S(=O)(=O)c1ccc(OC2CCN(S(=O)(=O)N(C)C)CC2)cc1` [Compound 39, 4-{4-[(3-Chloro-phenyl)-isobutyl-sulfamoyl]-phenoxy}-piperidine-1-sulfonic acid dimethylamide]: the IC50 came to 191 nM. This IC50 lies about 6.8-fold higher than the previous one.
For `CN(C)S(=O)(=O)N1CCN(c2ccc(S(=O)(=O)N(Cc3ccccc3C(F)(F)F)CC(F)(F)F)cc2)CC1` [Compound 79, 4-{4-[(2,2,2-Trifluoro-ethyl)-(2-trifluoromethyl-benzyl)-sulfamoyl]-phenyl}-piperazine-1-sulfonic acid dimethylamide] the value was 55 nM; for `CC(C)CN(c1cccc(Cl)c1)S(=O)(=O)c1ccc(N2CCN(S(C)(=O)=O)CC2)cc1` [Compound 18, N-(3-Chloro-phenyl)-N-isobutyl-4-(4-methanesulfonyl-piperazin-1-yl)-benzenesulfonamide], 126 nM; for `CC(=O)N1CCN(c2ccc(S(=O)(=O)N(c3cccc(Cl)c3)C3CCC3)cc2)CC1` [Compound 30, 4-(4-Acetyl-piperazin-1-yl)-N-(3-chloro-phenyl)-N-cyclobutyl-benzenesulfonamide], 149 nM.
For `CC(C)CN(c1ccccc1Cl)S(=O)(=O)c1ccc(N2CCC(NS(C)(=O)=O)CC2)cc1` [Compound 24, N-(2-Chloro-phenyl)-N-isobutyl-4-(4-methanesulfonylamino-piperidin-1-yl)-benzenesulfonamide] the value was 128 nM.
In turn, `CC(=O)N1CCN(c2ccc(S(=O)(=O)N(Cc3ccccc3C(F)(F)F)CC(C)(C)C)cc2)CC1` [Compound 88, 4-(4-Acetyl-piperazin-1-yl)-N-(2,2-dimethyl-propyl)-N-(2-trifluoromethyl-benzyl)-benzenesulfonamide] returned an IC50 of 39 nM.
For `CC(C)CN(c1ccc(F)cc1)S(=O)(=O)c1ccc(C(=O)NC2CCN(S(C)(=O)=O)CC2)cc1` [Compound 12, 4-[(4-Fluoro-phenyl)-isobutyl-sulfamoyl]-N-(1-methanesulfonyl-piperidin-4-yl)-benzamide] the value was 6100 nM; for `CC(C)CN(c1cccc(Cl)c1)S(=O)(=O)c1ccc(N2CCN(S(=O)(=O)N(C)C)CC2)cc1` [Compound 19, 4-{4-[(3-Chloro-phenyl)-isobutyl-sulfamoyl]-phenyl}-piperazine-1-sulfonic acid dimethylamide], 62 nM.

As a reminder, the IC50 is the concentration at which inhibition is half-maximal. Read a low IC50 as greater potency.
